Measurements taken from patent US9303017B2, “2,5-disubstituted-pyridyl nicotinic ligands, and methods of use thereof” (Georgetown University, priority 2011, dated 2016).
Where a name gives a salt, the structure may show the parent alone. Read-outs that look alike come from different tables or passages of the source.

Assays:
α3β4 nAChR = α3β4 nAChR (Rattus norvegicus (Rat), UniProt P04757+P12392); assay: [3H]-epibatidine competition binding, α3β4
Method: (§1) In Vitro Binding Affinities for nAChR Subtypes. […] To determine selectivities of these compounds in binding assays among the three predominant nAChR subtypes, α3β4, α4β2 and α7, the ratios of Ki values (α3β4/α4β2 and α7/α4β2) were determined.
(§2) Cell Lines and Cell Culture. The cell lines expressing defined rat nAChR subtypes were established previously by stably transfecting HEK 293 cells with rat nAChR subunit genes. The cell line expressing human α4β2 nAChRs, YXα4β2H1, was established recently. These cell lines were maintained in minimum essential medium (MEM) supplemented with 10% fetal bovine serum, 100 units/mL penicillin G, […] and selective antibiotics at 37° C. with 5% CO2 in a humidified incubator. Fetal bovine serum was provided by Gemini Bio-Products (Woodland, Calif.). Tissue culture medium and antibiotics were obtained from Invitrogen Corporation (Carlsbad, Calif.), unless otherwise stated.
(§3) Briefly, cultured cells at >80% confluence were removed from their flasks (80 cm^2) with a disposable cell scraper and placed in 10 mL of 50 mM Tris.HCl buffer (pH 7.4, 4° C.). The cell suspension was centrifuged at 10,000×g for 5 min and the pellet was collected. The cell pellet was then homogenized in 10 mL buffer with a polytron homogenizer and centrifuged at 36,000 g for 10 min at 4° C. The membrane pellet was resuspended in fresh buffer, and aliquots of the membrane preparation were used for binding assays. […] Bound and free ligands were separated by vacuum filtration through Whatman GF/C filters treated with 0.5% polyethylenimine. The filter-retained radioactivity was measured by liquid scintillation counting. Specific binding was defined as the difference between total binding and nonspecific binding. Data from competition binding assays were analyzed using Prism 5 (GraphPad Software, San Diego, Calif.).
(§4) Pharmacological Properties. We measured the in vitro binding affinities of the ligands for defined receptor subtypes (α2β2, α2β4, α3β2, α3β4, α4β2, α4β4, α6β2, α6β4, and α7) expressed in stably transfected cell lines. […] Rat forebrain homogenates were included to allow comparison between the heterologous and native α4β2 and α7 nAChRs. See Table 1 for binding affinity values (Ki) of the ligands at the three major nAChR subtypes (α3β4. α4β2 and α7).

rat α3β4 nAChRs = rat α3β4 nAChRs (Rattus norvegicus (Rat), UniProt P04757+P12392); assay: 86Rb+ efflux assay (activation and desensitization), α3β4; format: cell-based; details: for Emax: read-out: Emax α3β4 nAChRs
Method: (§5) In Vitro Effects on nAChR Function. […] Their agonist activities were assessed by measuring stimulated ^86Rb^+ efflux from stably transfected cells, either expressing human α4β2 nAChRs or rat α3β4 receptors.
as §2
(§6) ^86Rb^+ Efflux Assay. Functional properties of compounds at nAChRs expressed in the transfected cells were measured using ^86Rb^+ efflux assays as described previously. In brief, cells expressing human α4β2 or rat α3β4 nAChRs were plated into 24-well plates coated with poly-D-lysine. The plated cells were grown at 37° C. for 18 to 24 hour to reach 85-95% confluence. The cells were then incubated in growth medium (0.5 mL/well) containing ^86Rb^+ (2 μCi/mL) for 4 hour at 37° C. The loading mixture was then aspirated, and the cells were washed four times with 1 mL buffer (15 mM HEPES, 140 mM NaCl, 2 mM KCl, 1 mM MgSO4, 1.8 mM CaCl2, 11 mM Glucose, pH 7.4). One mL of buffer with or without compounds to be tested was then added to each well. After incubation for 2 min, the assay buffer was collected for measurements of ^86Rb^+ released from the cells. Cells were then lysed by adding 1 mL of 100 mM NaOH to each well, and the lysate was collected for determination of the amount of ^86Rb^+ that was in the cells at the end of the efflux assay. Radioactivity of assay samples and lysates was measured by liquid scintillation counting. Total loading (cpm) was calculated as the sum of the assay sample and the lysate of each well. The amount of ^86Rb^+ efflux was expressed as a percentage of ^86Rb^+ loaded. […] For obtaining EC50 and Emax values, stimulation curves were constructed in which 8 different concentrations of a ligand were included in the assay. […] EC50, Emax and IC50(10′) values were determined by nonlinear least-squares regression analyses (GraphPad, San Diego, Calif.).
(§7) The functional properties of the ligands were determined by ^86Rb^+ efflux assays in cells expressing α3β4 and α4β2 nAChR subtypes. The functional activity of each ligand was measured for its agonism, antagonism and desensitization ability. Agonist activity for each of the ligands was tested at eight different concentrations. […] The full concentration-effect curves generated potency (EC50) and efficacy (Emax) of each ligand. […] We tested each ligand for antagonist activity at eight concentrations. The potency (IC50(0′)) of each ligand as an antagonist was derived from the full concentration-effect curves.

α4β2 nAChR = α4β2 nAChR (Rattus norvegicus (Rat), UniProt P09483+P12390); assay: biochemical; format: binding; details: for Ki Ratio α3β4/α4β2: selectivity for α4β2 over α3β4; for Ki Ratio α7/α4β2: selectivity for α4β2 over α7
Method: as §1, §2, §3, §4

α7 nAChR = α7 nAChR (Rattus norvegicus (Rat), UniProt Q05941); format: binding; details: Table 3 (Example 4)
Method: as §1, §2, §3, §4

human α4β2 nAChRs = human α4β2 nAChRs (Homo sapiens (Human), UniProt P17787+P43681); assay: 86Rb+ efflux assay (activation and desensitization), α4β2; format: cell-based; details: for EC50: agonist activity; for Emax: read-out: Emax α4β2 nAChRs; for IC50: desensitization
Method: as §5, §2, §6, §7

ferrets = assay: Emesis studies in ferrets; format: in vivo, ferret (Mustela putorius furo); details: 0.5 mg/kg s.c.
Method: Emetic Effects of Compound (S)-15 (YL-1-127) in Ferrets. Effects of (S)-15 in causing nausea and emesis were assessed in a ferret model. For comparison, varenicline was also tested. […] In general, all animals remained alert and active with periods of inactivity that mirrored their baseline behavior within the 1 hr observation period.
In one animal, this behavior was accompanied by oral stereotypy (licking), whereas in two animals it was interspersed by episodes of backward walking. On the average, these behaviors manifested around ˜2.20 min. […] Occasionally, when animals tried to ambulate they would immediately cease their movement after each attempt. This would be followed by a momentary increase in breathing, giving the impression that the animal was in distress.
General Procedures for Emesis Studies in Ferrets. Studies were undertaken in male ferrets (Mustela putorius furo) weighing 0.9-1.5 kg (Marshall Farms, N.Y.). They were housed in controlled conditions of room temperature (22° C.) and light (12:12 h light-dark cycle) with free access to food and water. Prior to each experiment, food was withheld overnight, whereas water was provided ad libitum.
Emetic testing consisted of placing animals individually in a polycarbonate enclosure. Following a 30 min acclimation period, each animal randomly received a subcutaneus injection of varencline or compound (S)-15 (YL-1-127) in the subscapular region. A 60 min observation and video recording followed the drug administration. […] All drugs were dissolved in sterile saline.
Video analysis of the incidence of emesis, stereotypical behaviors (such as licking, mouth-clawing, backward walking, gagging, and burying of the head in cage) and GI side effects (diarrhea) was done off-line. Stereotypical behaviors are thought to be reflective of a subjective sensation of nausea. The emetic index of a drug was calculated as the […] of animals displaying emesis (one or more times in 60 min) divided by the total number of animals tested. An emetic episode was defined as the forceful oral expulsion of liquid or solid upper gastrointestinal contents that is temporally separated from another by at least 30 s.
The Nausea Index for the stereotypical behaviors was derived from the mean±SEM number of nausea behaviors observed among all animals in a given treatment group. Significance was determined at p<0.05.

[1] = Table 1, mean of 3 to 5 measurements
[2] = read-out: IC50(10′) α3β4 nAChRs
[3] = ND = no significant stimulated efflux detected
[4] = agonist efficacy normalized to Emax of nicotine, ND = no significant stimulated efflux detected
[5] = 10 min pre-treatment, Table 3 (Example 4), read-out: IC50(10′) α4β2
[6] = 10 min pre-incubation before 100 μM nicotine, Table 2, read-out: IC50(10′) α4β2 nAChRs

Cc1ncc(C#CC2CC2)cc1OC[C@@H]1CCN1 [(S)-27, (S)-3-(azetidin-2-ylmethoxy)-5-(cyclopropylethynyl)-2-methylpyridine]
Ki (α3β4 nAChR; [1]): 150000 nM
Ki (α3β4 nAChR; Table 3 (Example 4)): 150000 nM
IC50 (rat α3β4 nAChRs; read-out: IC50(10′) α3β4): 36000 nM
IC50 (rat α3β4 nAChRs; [2]): > 10000 nM
Ki (α4β2 nAChR; Table 1, mean of 3 to 5 measurements, read-out: Ki α4β2): 9.6 nM
Ki Ratio α3β4/α4β2 (α4β2 nAChR): 16,000
Ki Ratio α7/α4β2 (α4β2 nAChR): 16,000
Ki (α7 nAChR): 150000 nM
EC50 (human α4β2 nAChRs; [3]): 160 nM
Emax (human α4β2 nAChRs; [4]): < 20%
IC50 (human α4β2 nAChRs; [5]): 11 nM
IC50 (human α4β2 nAChRs; [6]): 110 nM

CN1CCC[C@H]1c1cccnc1 [(—)-Nicotine, (−)-nicotine, reference compound]
Emax α3β4 nAChRs (rat α3β4 nAChRs): full agonist activities
Emax (human α4β2 nAChRs): 100%

OCCCCC#Cc1cncc(OC[C@@H]2CCN2)c1 [Sazetidine-A, reference compound]
Ki (α3β4 nAChR; Table 3 (Example 4)): 1900 nM
EC50 (rat α3β4 nAChRs; agonist activity, ND = no significant stimulated efflux detected): 24000 nM
IC50 (rat α3β4 nAChRs; desensitization, 10 min pre-treatment, Table 3 (Example 4), read-out: IC50(10′) α3β4): > 10000 nM
Emax (rat α3β4 nAChRs): 17%
IC50 (rat α3β4 nAChRs; [2]): > 10000 nM
Ki (α4β2 nAChR; Table 3 (Example 4), read-out: Ki α4β2): 0.062 nM
Ki Ratio α3β4/α4β2 (α4β2 nAChR): 31,000
Ki Ratio α7/α4β2 (α4β2 nAChR): 11,000
Ki (α7 nAChR): 1600 nM
EC50 (human α4β2 nAChRs; [3]): 24 nM
Emax (human α4β2 nAChRs; [4]): 40%
IC50 (human α4β2 nAChRs; [5]): 7.5 nM
IC50 (human α4β2 nAChRs; [6]): 12 nM

c1cnc2cc3c(cc2n1)[C@@H]1CNC[C@H]3C1 [Varenicline]
Emax (rat α3β4 nAChRs): 90%
gagging (retching), mean # of episodes (ferrets): 2.80 ± 1.63
time post-injection at which locomotor behavior was noticeably reduced (ferrets): ~1.05 min
emetic episodes (ferrets; 1 hr observation): no emetic episodes were observed
time at which nausea behaviors manifested (ferrets; average): ~2.20 min
animals with drug induced nausea (gagging) (ferrets; animals affected/tested): 4/5

CCCCC#Cc1cnc(C(F)(F)F)c(OC[C@@H]2CCN2)c1 [compound 32, (S)-3-(azetidin-2-ylmethoxy)-5-(hex-1-ynyl)-2-(trifluoromethyl)pyridine hydrochloride]
Ki (α3β4 nAChR; [1]): > 100000 nM
Ki (α4β2 nAChR): > 100000 nM
